According to patent publication US20090175866A1, “TREATMENT OF B-CELL MALIGNANCIES” (priority 2004, published 2009):

Columns and labels:
Assay type in all cases: cell-based, human
UTMC2 cells = assay: Viability of stimulated UTMC2 myeloma cells (MTT); settings: 100 nM; MTT
Description: (§1) FIG. 2 is a graph showing the viability of human myeloma cell lines in the presence of PRO-001. Viability is reported as the ratio between the optical density (OD) in the presence of FGF±inhibitor and the OD in the absence of FGF.
FIG. 4 is a graph showing viability of UTMC2 cells treated with FGF, IL6 or IGF-1. The dark bars represent stimulated cells treated with a control antibody; the dotted bar represents stimulated cells treated with 5 μg/ml PRO-001; the square-filled bar represents stimulated cells treated with 100 nM PD173074.
Non-transformed rat chondrocyte cell line expressing PGFR3 in an inducible manner (RCJ-FGFR3) has been described previously (Rauchenberger R. et al. J. Biol. Chem. 2003; 278:38194-205). […]
(§2) Cell viability was assessed by 3-(4,5-dimethylthiazol)-2,5-diphenyl tetrazolium (MTT) or (2,3-bis(2-methoxy-4-nitro-5-sulphophenyl)-5-[(phenylamino) carbonyl]-2H-tetrazolium hydroxide (XTT) dye absorbance where indicated. Cells were seeded in 96-well plates at a density of 20,000 (FDCP-1 cells), 5,000 (B9 cells) or 25,000 cells (MM cell lines) per well in culture medium. Cells were incubated in the absence or presence of one of the following cytokines: 10 ng/ml FGF9 and 5 μg/ml heparin, 1% murine IL-6, 50 ng/ml IGF-1 or 50 ng/ml human IL-6 where indicated and increasing concentrations of PRO-001, control antibody (purified human Fab) or 100 nM PD173074. […]

H929 cells = assay: Viability of H929 myeloma cells (MTT); settings: 100 nM
From the text: as §1
(§3) Non-transformed rat chondrocyte cell line expressing PGFR3 in an inducible manner (RCJ-FGFR3) has been described previously (Rauchenberger R. et al. J. Biol. Chem. 2003; 278:38194-205). Cells were maintained in α-Minimum Essential Media supplemented with 15% fetal calf serum (FCS), 2 mM L-Glutamine, 100 U/ml penicillin, 100 μg/ml streptomycin, 600 μg/ml G418 (Gibco BRL, Ontario, Canada), 2 μg/ml Tetracyclin (Sigma, Ontario, Canada), and 50 μg/ml HygromycinB (Gibco BRL). […]
as §2

8226 cells = assay: Viability of 8226 myeloma cells (MTT); settings: 100 nM, cells lack FGFR3 expression
From the text: as §1, §3, §2

Compound: CCN(CC)CCCCNc1ncc2cc(-c3cc(OC)cc(OC)c3)c(NC(=O)NC(C)(C)C)nc2n1 [PD173074, reference compound]
- Inhibition of FGF-stimulated growth of UTMC2 (UTMC2 cells): Inhibition of FGF-stimulated growth of UTMC2 by PRO-001 was comparable to that induced by PD173074
- Cell growth of H929 cells in the presence of FGF (H929 cells): resistant
- Cell growth of 8226 cells in the presence of FGF (8226 cells): resistant
